Assay results published in patent publication US11246877B2, “Nanoparticles for chemotherapy, targeted therapy, photodynamic therapy, immunotherapy, and any combination thereof” (The University of Chicago, priority 2016, dated 2022).
Like-named read-outs stand apart in the source and are kept apart here.

Key:
[1] = test system: A2780/CDDP cells; test: In vitro cytotoxicity in ovarian cancer cells, MTS, 72 h; format: cell-based
Protocol: (§1) A2780, A2780/CDDP, and SKOV-3 cells were seeded into 96-well plate at 2000 cells/well for 24 h. Afterwards cells were treated with free DHA or Zn/DHA at various concentrations and incubated for another 72 h. The cell viability was then determined via MTS assay by microplate reader.
(§2) A2780, A2780/CDDP, and SKOV-3 cells were seeded into 96-well plate at 2000 cells/well for 24 h. Afterwards cells were treated with different formulations at various concentrations and incubated for another 72 h. The cell viability was then determined via MTS assay by microplate reader.

[2] = test system: H69 cells; test: In vitro cytotoxicity of NCP-1/ET/siRNA in SCLC, MTS, 72 h; format: cell-based
Protocol: (§3) Small cell lung cancer (SCLC) cell lines H82 and H69 cells were seeded into 96-well plate at 2000 cells/well for 24 h. Afterwards, cells were treated by cisplatin, ET, cisplatin+ET, NCP-1, NCP-1/ET, and NCP-1/ET/siRNAs at various concentrations and incubated for another 72 h. The cell viability was then determined via MTS assay by microplate reader.

[3] = test system: H82 cells; test: as above; format: cell-based
Protocol: as §3

[4] = test system: A2780/CDDP cells; test: In vitro cytotoxicity of cisplatin, OTS167 and NCP-1/OTS167; format: cell-based
Protocol: The cytotoxicity of NCP-1/OTS167 with different molar ratio was then evaluated.

[5] = test system: A2780 cells; test: In vitro cytotoxicity in ovarian cancer cells, MTS, 72 h; format: cell-based; details: Homo sapiens; A2780, 72 h, DHA concentration; read-out: IC50 of DHA (numbers in parenthesis)
Protocol: as §1, §2

[6] = test system: SKOV-3 cells; test: as above; format: cell-based; details: Homo sapiens, SK-OV-3; SKOV-3, 72 h, DHA concentration; read-out: IC50 of DHA (numbers in parenthesis)
Protocol: as §1, §2

[7] = test system: CT26 cells; test: In vitro cytotoxicity of NCP-2/DHA; format: cell-based, murine
Protocol: (§4) The cytotoxicity of NCP-2/DHA was evaluated against two colon cancer cell lines CT26 and MC38. […] The combination index (CI50) for the two drugs was lower than 1 in some drug effect levels, indicating the syngestic effect between two drugs.

[8] = test system: MC38 cells; test: In vitro cytotoxicity of NCP-2/DHA; format: cell-based, murine
Protocol: as §4

[9] = test system: CT26 cells; test: In vitro cytotoxicity of NCP-3/DHA; format: cell-based, murine
Protocol: (§5) The cytotoxicity of NCP-3/DHA was evaluated against two colon cancer cell lines CT26 and MC38.

[10] = test system: MC38 cells; test: In vitro cytotoxicity of NCP-3/DHA; format: cell-based, murine
Protocol: as §5

[11] = test system: H82 cells; test: In vitro cytotoxicity against small cell lung cancer cells, MTS, 96 h; format: cell-based; details: Homo sapiens, NCI-H82, etoposide concentration
Protocol: H82 cells seeded on 96-well plates at a density of 2000 cells/well were treated with Zn/ET and free etoposide at various etoposide concentrations for 96 h. The cell viability was then detected by MTS assay (Promega, Madison, Wis., United States of America) and the IC50 values were calculated accordingly. […] ET is likely released from Zn/ET via intracellular reduction by endogenous thiol groups as shown below in Scheme 9.

[12] = test system: H460 cells; test: In vitro cytotoxicity against non-small cell lung cancer cells, MTS, 72 h; format: cell-based; details: Homo sapiens, NCI-H460
Protocol: H460 and A549 cells seeded on 96-well plates at a density of 2000 cells/well were treated with Zn/PTX and free PTX at various […] concentrations for 72 h. The cell viability was then detected by MTS assay (Promega, USA) and the IC50 values were calculated accordingly.

[13] = test system: CT26 cells; test: In vitro cytotoxicity of NCP-2/PTX, MTS; format: cell-based, murine; details: read-out: Oxaliplatin IC50
Protocol: (§6) The cytotoxicity of NCP-2/PTX was evaluated against two colorectal cancer cells including murine colorectal adenocarcinoma CT26 and murine colorectal carcinoma MC38. By combining two chemotherapeutic agents with vastly different solubility requirements, NCP-2/PTX elicited substantial anticancer efficacy owing to synergy between the drugs.
(§7) The IC50 of oxaliplatin was substantially lower than that of paclitaxel by MTS assay, likely due to the hydrophobicity of paclitaxel. Paclitaxel was prepared in a stock solution of 3:1 ethanol:water ratio at 1 mg/ml before subsequent dilution to prepare free drug doses. The combination index (CI50) for the two drugs was much more favorable for the 1:1 compared to 2:1 molar ratio, with equal oxaliplatin doses.

[14] = test system: MC38 cells; test: In vitro cytotoxicity of NCP-2/PTX, MTS; format: cell-based, murine; details: MC38, drug ratio 1:1; read-out: Oxaliplatin IC50
Protocol: as §6, §7

[15] = test system: CT26 cells; test: In vitro cytotoxicity of NCP-2/MTX; format: cell-based, murine; details: CT26, drug ratio 2:1; read-out: Oxaliplatin IC50
Protocol: (§8) The cytotoxicity of NCP-2/MTX was evaluated against two syngeneic cancer cell lines:colorectal adenocarcinoma CT26 and colorectal carcinoma MC38. By combining two chemotherapeutic agents with vastly different solubility requirements, NCP-2/MTX elicited substantial anticancer efficacy owing to synergy between the drugs. […] The combination index (CI50) for the two drugs was much more favorable for the 2:1 compared to 1:1 molar ratio, with equal Pt doses.

[16] = test system: MC38 cells; test: In vitro cytotoxicity of NCP-2/MTX; format: cell-based, murine; details: MC38, drug ratio 1:1; read-out: Oxaliplatin IC50
Protocol: as §8

[17] = test system: CT26 cells; test: Apoptosis/necrosis by Annexin V flow cytometry; format: cell-based, murine; details: CT26, 24 h, oxaliplatin concentration 10 μM
Protocol: CT26 cells seeded in 24-well plates at 1×10^5 cells/well were first incubated with NCP-3/DHA or appropriate controls for 24 h at an oxaliplatin concentration of 10 μM. The floating and adherent cells were collected and stained with Alexa Fluor 488 AnnexinV/dead cell apoptosis kit (Invitrogen, USA) according to manufacturer's instructions. The apoptosis and necrosis were examined by a flow cytometry (LSRII Blue, BD, Franklin Lakes, N.J., United States of America).

[18] = test system: CT26 cells; test: Immunogenic cell death: cell surface CRT by flow cytometry; format: cell-based, murine; details: CT26, oxaliplatin 10 μM and/or DHA 20 μM, 24 h
Protocol: In Vitro Immunogenic Cell Death The immunogenic cell death induced by NCP-3/DHA was evaluated by flow cytometry and ELISA. For flow cytometry analysis, CT26 cells were seeded at 1×10^6 cells per well in 6-well plates and further cultured for 24 h. The culture media were replaced by 2 mL of fresh culture media containing 10% FBS. Oxaliplatin, DHA, chol-DHA, oxaliplatin+DHA, NCP-3, Zn/DHA and NCP-3/DHA were added to the cells, respectively, at equivalent oxaliplatin and/or DHA dose of 10 μM and 20 μM, respectively. Cells incubated with PBS served as control. Following incubation of 24 h, the cells were collected, incubated with AlexaFluor 488-CRT antibody for 2 h, and stained with PI. The samples were analyzed by flow cytometer (LSRII Orange, BD, Franklin Lakes, N.J., United States of America) to identify cell surface CRT. The fluorescence intensity of stained cells was gated on PI-negative cells.

[19] = test system: CT26 cells; test: HMGB-1 release by ELISA; format: cell-based, murine; details: CT26, oxaliplatin 10 μM and/or DHA 20 μM, 48 h
Protocol: The release of high mobility group box-1 (HMGB-1) protein after ICD was evaluated by ELISA. CT26 cells were seeded at 1×10^6 cells per well in 6-well plates and further cultured for 24 h. The culture media were replaced by 2 mL of fresh culture media containing 10% FBS. Oxaliplatin, DHA, chol-DHA, oxaliplatin+DHA, NCP-3, Zn/DHA, NCP-3/DHA, and NCP-3/OA-DHA were added to the cells, respectively, at equivalent oxaliplatin and/or DHA dose of 10 μM and 20 μM, respectively. Cells incubated with PBS served as control. Following incubation of 48 h, the supernatant was collected and analyzed by an ELISA kit (Chondrex, Inc., Redmond, Wash., United States of America) by microplate reader.

[20] = test system: CT26 cells; test: In vitro PDT cytotoxicity; format: cell-based, murine; details: read-out: Oxaliplatin IC50
Protocol: (§9) The cytotoxicity of NCP-2@pyrolipid was evaluated against two colorectal cancer cells including murine colorectal adenocarcinoma CT26 and human colorectal adenocarcinoma HT29 cells. By combining chemotherapy of oxaliplatin and PDT modalities into one single nanoparticle, NCP-2@pyrolipid induces apoptosis/necrosis as well as elicit immunogenic cell death upon LED light irradiation. […] However, upon irradiation at 54 J/cm^2 light irradiation (670 nm), the oxaliplatin IC50 of NCP-2@pyrolipid was decreased by ˜4-fold and ˜5-fold in CT26 and HT29 cells, respectively.

[21] = test system: HT29 cells; test: In vitro PDT cytotoxicity; format: cell-based, human; details: read-out: Oxaliplatin IC50
Protocol: as §9

[22] = test system: CT26 cells; test: In vitro PDT evoked immunogenic cell death (surface CRT); format: cell-based, murine; details: with or without irradiation, Pt 5 μM, pyrolipid 1.6 μM
Protocol: Calreticulin (CRT) is a distinct biomarker exposed on the surface of cells undergoing immunogenic cell death (ICD). The immunogenic cell death induced by NCP-2@pyrolipid was evaluated by immunofluorescence and flow cytometry. For immunofluorescence analysis, CT26 cells were seeded at 5×10^5 cells per well in 6-well plates and further cultured for 24 h. The culture media were replaced by 2 mL of fresh culture media containing 10% FBS. Oxaliplatin, NCP-2, NCP-2@pyrolipid, and porphysome were added to the cells, respectively, at an equivalent Pt dose of 5 μM and pyrolipid dose of 1.6 μM. Cells incubated with PBS served as control. After 24-h incubation, the cells were irradiated with LED light (670 nm) at 100 mW/cm^2 for 15 min (equal to 90 J/cm^2). Following further incubation of 4 h, the cells were washed with PBS three times, fixed with 4% paraformaldehyde, incubated with AlexaFluor 488-CRT antibody for 2 h, stained with DAPI, and observed under CLSM using 405 nm and 488 nm lasers for visualizing nuclei and CRT expression on the cell membrane, respectively. […] The samples were analyzed by flow cytometer (LSRII Orange, BD, Franklin Lakes, N.J., United States of America) to identify cell surface CRT. The fluorescence intensity of stained cells was gated on PI-negative cells.

[23] = Mus musculus, CT26, DHA concentration, read-out: DHA IC50
[24] = Mus musculus, MC-38, MC38, DHA concentration, read-out: DHA IC50
[25] = CT26, read-out: Oxaliplatin IC50
[26] = MC38, read-out: Oxaliplatin IC50

## N.N.[Cl][Pt][Cl] [Cisplatin, cisplatin]
[1]; cisplatin concentration, read-out: IC50 of cisplatin
  IC50: 19.8 ± 4.01 µM
[2]
  IC50: 13.2 ± 0.35 µM
[3]
  IC50: 7.93 ± 0.7 µM
[4]; cisplatin concentration, read-out: IC50, Cisplatin
  IC50: 12.8 ± 0.19 µM

## C[C@H]1[C@@H](O)O[C@@H]2O[C@@]3(C)CC[C@H]4[C@H](C)CC[C@@H]1[C@@]24OO3 [DHA, dihydroartemisinin]
[5]
  IC50: 0.3 ± 0.11 µM
[1]; DHA concentration, read-out: IC50 of DHA (numbers in parenthesis)
  IC50: 2.61 ± 0.18 µM
[6]
  IC50: 9.9 ± 0.34 µM
[7]; [23]
  IC50: 7.77 ± 2.68 µM
[8]; [24]
  IC50: 4.83 ± 1.12 µM
[9]; [23]
  IC50: 6.25 ± 1.53 µM
[10]; [24]
  IC50: 9.68 ± 1.12 µM

## COc1cc([C@@H]2c3cc4c(cc3[C@@H](O[C@@H]3O[C@@H]5CO[C@@H](C)O[C@H]5[C@H](O)[C@H]3O)[C@H]3COC(=O)[C@H]23)OCO4)cc(OC)c1O [Etoposide]
[11]
  IC50: 8.83 ± 0.13 µM
[2]; Homo sapiens, NCI-H69
  IC50: 42.2 ± 0.61 µM
[3]; Homo sapiens, NCI-H82
  IC50: 30.9 ± 0.37 µM

## CC(=O)c1cnc2ccc(-c3cc(Cl)c(O)c(Cl)c3)nc2c1N[C@H]1CC[C@H](CN(C)C)CC1 [OTS167]
[4]; OTS167 concentration, read-out: IC50, OTS167
  IC50: 0.0121 ± 0.00046 µM

## CC(=O)O[C@H]1C(=O)[C@@]2(C)[C@H]([C@H](OC(=O)c3ccccc3)[C@]3(O)C[C@H](OC(=O)[C@H](O)[C@@H](NC(=O)c4ccccc4)c4ccccc4)C(C)=C1C3(C)C)[C@]1(OC(C)=O)CO[C@@H]1C[C@@H]2O [PTX, Paclitaxel]
[12]
  IC50: 10.8 ± 0.44 µM

## O=C1[O][Pt]2([NH][C@@H]3CCCC[C@H]3[NH]2)[O]C1=O [oxaliplatin]
[13]; CT26 (cell-line cell empty), drug ratio 2:1
  IC50: 10.2 ± 0.98 µM
[13]; CT26, drug ratio 1:1
  IC50: 7.05 ± 0.95 µM
[14]
  IC50: 3.35 ± 0.13 µM
[15]
  IC50: 7.05 ± 0.59 µM
[16]
  IC50: 3.35 ± 0.13 µM
[7]; [25]
  IC50: 5.77 ± 1.06 µM
[8]; [26]
  IC50: 7.87 ± 1.32 µM
[9]; [25]
  IC50: 10.3 ± 1.62 µM
[10]; [26]
  IC50: 12.8 ± 1.32 µM
[17]
  apoptosis and necrosis: caused necrosis
[18]
  cell surface CRT expression: caused cell surface CRT expression
[19]
  HMGB-1 release: HMGB-1 release
[20]; CT26, irradiation No
  IC50: 5.05 ± 0.95 µM
[20]; CT26, irradiation Yes (670 nm, 54 J/cm^2)
  IC50: 4.97 ± 0.49 µM
[21]; HT29, irradiation No
  IC50: 1.44 ± 0.32 µM
[21]; HT29, irradiation Yes (670 nm, 54 J/cm^2)
  IC50: 1.87 ± 0.31 µM
[22]
  surface CRT expression: significant amounts of CRT
